Experiments:
[1] = target: Cyclin-dependent kinase 5/CDK5 activator 1 (Homo sapiens) (UniProt Q00535+Q15078); test: Inhibition of recombinant full length human CDK5/p35 assessed as residual activity at 10 uM using histone H1 as substrate incubated for 40 mins in presence of [gamma-33ATP] by scintillation counting based radiometry assay relative to control; format: protein-complex assay
[2] = target: CDK9/cyclin T1 (Homo sapiens) (UniProt O60563+P50750); test: Inhibition of recombinant full length human CDK9/cyclinT1 assessed as residual activity at 10 uM using KTFCGTPEYLAPE as substrate incubated for 40 mins in presence of [gamma-33ATP] by scintillation counting based radiometry assay relative to control; format: protein-complex assay
[3] = tested on: Casein kinase I isoform gamma-3 (Homo sapiens), Q9Y6M4 [UNDEFINED MUTATION]; test: Inhibition of recombinant human CK1gamma3 K91E/R174G/E302D mutant (1 to 330 residues) assessed as residual activity at 10 uM using KRRRALS(p)VASLPGL as substrate incubated for 40 mins in presence of [gamma-33ATP] by scintillation counting based radiometry assay relative to control
[4] = target: Dual specificity protein kinase CLK2 (Homo sapiens) (UniProt P49760); test: Inhibition of recombinant human CLK2 (138 to end residues) assessed as residual activity at 10 uM using YRRAAVPPSPSLSRHSSPHQS(p)EDEEE as substrate incubated 40 mins in presence of [gamma-33ATP] by scintillation counting based radiometry assay relative to control
[5] = tested on: Mast/stem cell growth factor receptor Kit (Homo sapiens), P10721 [V654A]; test: Inhibition of recombinant human C-Kit V654A mutant (544 to end residues) assessed as residual activity at 10 uM poly(Glu, Tyr) 4:1 as substrate incubated 40 mins in presence of [gamma-33ATP] by scintillation counting based radiometry assay relative to control
Sequence of Mast/stem cell growth factor receptor Kit (Homo sapiens), P10721 [V654A] (P10721 whole entry V654A): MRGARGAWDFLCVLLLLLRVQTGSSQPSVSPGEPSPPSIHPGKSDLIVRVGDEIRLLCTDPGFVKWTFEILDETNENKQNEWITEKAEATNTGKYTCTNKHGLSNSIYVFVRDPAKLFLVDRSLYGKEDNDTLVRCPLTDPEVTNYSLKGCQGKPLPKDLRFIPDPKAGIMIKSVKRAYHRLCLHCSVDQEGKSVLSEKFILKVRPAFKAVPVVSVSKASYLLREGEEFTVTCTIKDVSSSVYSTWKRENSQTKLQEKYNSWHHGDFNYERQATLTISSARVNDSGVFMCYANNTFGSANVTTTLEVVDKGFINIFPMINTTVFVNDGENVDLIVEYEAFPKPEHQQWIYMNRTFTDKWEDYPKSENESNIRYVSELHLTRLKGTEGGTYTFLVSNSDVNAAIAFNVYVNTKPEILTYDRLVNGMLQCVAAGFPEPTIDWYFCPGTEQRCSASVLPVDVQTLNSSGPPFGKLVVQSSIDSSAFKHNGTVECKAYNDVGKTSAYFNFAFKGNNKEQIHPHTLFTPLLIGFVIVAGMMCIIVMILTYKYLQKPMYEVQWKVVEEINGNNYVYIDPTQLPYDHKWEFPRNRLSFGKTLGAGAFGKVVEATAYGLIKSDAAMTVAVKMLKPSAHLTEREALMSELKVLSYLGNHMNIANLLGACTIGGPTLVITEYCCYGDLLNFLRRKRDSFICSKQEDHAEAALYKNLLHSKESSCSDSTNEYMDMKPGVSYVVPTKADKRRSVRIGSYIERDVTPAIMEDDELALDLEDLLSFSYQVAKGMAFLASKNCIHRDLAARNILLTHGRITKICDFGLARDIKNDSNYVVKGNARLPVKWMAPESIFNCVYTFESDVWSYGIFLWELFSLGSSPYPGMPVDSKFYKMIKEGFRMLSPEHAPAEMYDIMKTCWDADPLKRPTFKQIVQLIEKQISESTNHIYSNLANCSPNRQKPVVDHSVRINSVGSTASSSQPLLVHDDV

[6] = species: Homo sapiens; test: Inhibition of recombinant human DDR1 V833L mutant (492 to end residues) assessed as residual activity at 10 uM using KKKSPGEYVNIEF as substrate at 40 mins in presence of [gamma-33ATP] by scintillation counting based radiometry assay relative to control
[7] = target: Ephrin type-A receptor 5 (Homo sapiens) (UniProt P54756); test: Inhibition of recombinant human EphA5 (655to 956 residues) assessed as residual activity at 10 uM using poly(Glu, Tyr) 4:1 as substrate at 40 mins in presence of [gamma-33ATP] by scintillation counting based radiometry assay relative to control
[8] = target: Ephrin type-A receptor 8 (Homo sapiens) (UniProt P29322); test: Inhibition of recombinant human EphA8 (615 to 911 residues) assessed as residual activity at 10 uM using KTFCGTPEYLAPEVRREPRILSEEEQEMFRDFDYIADWC as substrate at 40 mins in presence of [gamma-33ATP] by scintillation counting based radiometry assay relative to control
[9] = target: Rhodopsin kinase GRK1 (Homo sapiens) (UniProt Q15835); test: Inhibition of recombinant full length human GRK1 assessed as residual activity at 10 uM using KKKKERLLDDRHD as substrate at 40 mins in presence of [gamma-33ATP] by scintillation counting based radiometry assay relative to control
[10] = target: Mitogen-activated protein kinase 10 (Homo sapiens) (UniProt P53779); test: Inhibition of human JNK3 assessed as residual activity at 10 uM using peptide as substrate after 40 mins by [gamma-33ATP] radiometric assay relative to control
Sequence of Mitogen-activated protein kinase 10 (Homo sapiens) (P53779 whole entry): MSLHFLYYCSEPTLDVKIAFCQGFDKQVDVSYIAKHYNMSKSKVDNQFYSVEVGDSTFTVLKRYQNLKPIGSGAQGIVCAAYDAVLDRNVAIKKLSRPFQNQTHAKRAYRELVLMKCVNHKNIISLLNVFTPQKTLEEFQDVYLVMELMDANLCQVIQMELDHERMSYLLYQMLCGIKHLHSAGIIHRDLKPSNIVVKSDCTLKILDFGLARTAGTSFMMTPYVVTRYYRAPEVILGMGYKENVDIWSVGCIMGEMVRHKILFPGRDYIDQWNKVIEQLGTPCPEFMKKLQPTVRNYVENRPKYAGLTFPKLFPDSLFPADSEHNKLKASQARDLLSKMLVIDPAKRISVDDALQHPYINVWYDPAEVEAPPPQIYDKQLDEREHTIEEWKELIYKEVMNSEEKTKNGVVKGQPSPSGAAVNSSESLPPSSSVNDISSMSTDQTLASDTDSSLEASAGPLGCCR

[11] = target: Mitogen-activated protein kinase kinase kinase 2 (Homo sapiens) (UniProt Q9Y2U5); test: Inhibition of recombinant full length human MEKK2 assessed as residual activity at 10 uM using myelin basic protein as substrate incubated for 40 mins in presence of [gamma-33ATP by scintillation counting based radiometry assay relative to control
[12] = target: Ribosomal protein S6 kinase alpha-4 (Homo sapiens) (UniProt O75676); test: Inhibition of recombinant human MSK2 (2 to end residues) assessed as residual activity at 10 uM using GRPRTSSFAEGKK as substrate incubated for 40 mins in presence of [gamma-33ATP by scintillation counting based radiometry assay relative to control
Sequence of Ribosomal protein S6 kinase alpha-4 (Homo sapiens) (O75676 whole entry, looked up): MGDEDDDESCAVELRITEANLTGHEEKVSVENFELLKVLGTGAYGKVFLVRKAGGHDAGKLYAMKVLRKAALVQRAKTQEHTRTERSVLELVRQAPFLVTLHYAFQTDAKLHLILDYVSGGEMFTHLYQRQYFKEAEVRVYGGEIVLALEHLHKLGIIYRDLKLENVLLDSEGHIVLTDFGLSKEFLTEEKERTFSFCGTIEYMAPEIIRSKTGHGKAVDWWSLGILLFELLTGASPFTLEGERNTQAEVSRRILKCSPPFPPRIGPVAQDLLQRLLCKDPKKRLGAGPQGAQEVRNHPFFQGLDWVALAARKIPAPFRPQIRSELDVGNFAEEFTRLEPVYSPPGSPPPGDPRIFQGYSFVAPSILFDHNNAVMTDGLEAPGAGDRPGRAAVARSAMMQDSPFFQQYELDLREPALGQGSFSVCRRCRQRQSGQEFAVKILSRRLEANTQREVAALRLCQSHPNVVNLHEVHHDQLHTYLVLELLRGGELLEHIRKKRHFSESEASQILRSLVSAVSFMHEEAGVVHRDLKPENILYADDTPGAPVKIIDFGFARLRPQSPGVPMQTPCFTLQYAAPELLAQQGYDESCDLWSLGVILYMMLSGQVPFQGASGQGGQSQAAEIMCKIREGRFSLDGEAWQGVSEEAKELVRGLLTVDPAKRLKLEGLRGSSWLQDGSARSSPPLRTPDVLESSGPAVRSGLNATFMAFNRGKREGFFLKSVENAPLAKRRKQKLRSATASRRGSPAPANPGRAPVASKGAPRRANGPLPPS

[13] = target: NUAK family SNF1-like kinase 2 (Homo sapiens) (UniProt Q9H093); test: Inhibition of recombinant human full length NUAK2 assessed as residual activity at 10 uM using KKKVSRSGLYRSPSMPENLNRPR as substrate measured after 40 mins in presence of [gamma33P]ATP by scintillation counting based radiometry assay relative to control
[14] = tested on: Platelet-derived growth factor receptor alpha (Homo sapiens), P16234 [D842V]; test: Inhibition of human PDGFRalpha D842V mutant (550 to end residues) assessed as residual activity at 10 uM using poly(Glu, Tyr) 4:1 as substrate measured after 40 mins in presence of [gamma33P]ATP by scintillation counting based radiometry assay relative to control
Sequence of Platelet-derived growth factor receptor alpha (Homo sapiens), P16234 [D842V] (P16234 whole entry D842V): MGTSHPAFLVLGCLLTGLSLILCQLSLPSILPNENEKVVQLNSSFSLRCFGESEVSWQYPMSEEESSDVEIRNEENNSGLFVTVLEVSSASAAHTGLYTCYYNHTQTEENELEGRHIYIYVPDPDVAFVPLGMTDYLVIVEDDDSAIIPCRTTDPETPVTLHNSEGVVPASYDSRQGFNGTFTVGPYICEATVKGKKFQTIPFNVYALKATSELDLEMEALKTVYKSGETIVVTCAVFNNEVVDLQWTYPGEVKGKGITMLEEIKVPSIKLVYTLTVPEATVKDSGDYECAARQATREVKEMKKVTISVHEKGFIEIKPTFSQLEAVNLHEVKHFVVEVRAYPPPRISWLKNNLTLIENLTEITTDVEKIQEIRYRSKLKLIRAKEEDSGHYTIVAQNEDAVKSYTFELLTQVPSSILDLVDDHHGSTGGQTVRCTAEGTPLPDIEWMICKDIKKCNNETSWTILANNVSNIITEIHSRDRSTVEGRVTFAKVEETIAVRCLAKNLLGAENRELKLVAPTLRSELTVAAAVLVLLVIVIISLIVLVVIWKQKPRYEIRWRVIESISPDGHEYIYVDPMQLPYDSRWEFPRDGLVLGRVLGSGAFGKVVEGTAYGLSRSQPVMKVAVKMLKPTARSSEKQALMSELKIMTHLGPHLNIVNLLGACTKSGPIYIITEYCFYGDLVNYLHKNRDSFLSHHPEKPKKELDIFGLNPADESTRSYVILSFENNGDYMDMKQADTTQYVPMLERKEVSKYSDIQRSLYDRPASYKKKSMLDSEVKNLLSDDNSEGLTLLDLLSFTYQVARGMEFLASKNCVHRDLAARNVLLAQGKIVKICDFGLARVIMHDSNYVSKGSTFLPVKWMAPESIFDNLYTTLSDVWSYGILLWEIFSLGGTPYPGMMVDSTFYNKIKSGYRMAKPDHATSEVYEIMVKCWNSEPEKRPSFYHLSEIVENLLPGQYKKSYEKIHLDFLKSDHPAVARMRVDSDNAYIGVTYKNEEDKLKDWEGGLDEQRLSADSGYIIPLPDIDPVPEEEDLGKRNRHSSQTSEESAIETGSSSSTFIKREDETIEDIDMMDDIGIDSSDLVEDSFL

[15] = species: Homo sapiens; test: Inhibition of recombinant full length human PKBalpha S478G mutant assessed as residual activity at 10 uM using GRPRTSSFAEGKK as substrate incubated for 40 mins in presence of [gamma33P]ATP by scintillation counting based radiometry assay relative to control
[16] = target: Receptor-interacting serine/threonine-protein kinase 2 (Homo sapiens) (UniProt O43353); test: Inhibition of recombinant human RIPK2 (1 to 299 residues) assessed as residual activity at 10 uM using myelin basic protein as substrate incubated for 120 mins in presence of [gamma33P]ATP by scintillation counting based radiometry assay relative to control
[17] = target: Macrophage-stimulating protein receptor (Homo sapiens) (UniProt Q04912); test: Inhibition of recombinant human Ron (983 to end residues) assessed as residual activity at 10 uM using GGMEDIYFEFMGGKKK as substrate incubated for 40 mins in presence of [gamma33P]ATP by scintillation counting based radiometry assay relative to control
[18] = target: Serine/threonine-protein kinase 25 (Homo sapiens) (UniProt O00506); test: Inhibition of recombinant human STK25 (1 to 308 residues) assessed as residual activity at 10 uM using RLGRDKYKTLRQIRQ as substrate incubated for 40 mins in presence of [gamma33P]ATP by scintillation counting based radiometry assay relative to control
[19] = target: Serine/threonine-protein kinase TBK1 (Homo sapiens) (UniProt Q9UHD2); test: Inhibition of recombinant full length human TBK1 assessed as residual activity at 10 uM using KRRRALS(p)VASLPGL as substrate incubated for 40 mins in presence of [gamma33P]ATP by scintillation counting based radiometry assay relative to control
Sequence of Serine/threonine-protein kinase TBK1 (Homo sapiens) (Q9UHD2 whole entry, the tested form may be a part): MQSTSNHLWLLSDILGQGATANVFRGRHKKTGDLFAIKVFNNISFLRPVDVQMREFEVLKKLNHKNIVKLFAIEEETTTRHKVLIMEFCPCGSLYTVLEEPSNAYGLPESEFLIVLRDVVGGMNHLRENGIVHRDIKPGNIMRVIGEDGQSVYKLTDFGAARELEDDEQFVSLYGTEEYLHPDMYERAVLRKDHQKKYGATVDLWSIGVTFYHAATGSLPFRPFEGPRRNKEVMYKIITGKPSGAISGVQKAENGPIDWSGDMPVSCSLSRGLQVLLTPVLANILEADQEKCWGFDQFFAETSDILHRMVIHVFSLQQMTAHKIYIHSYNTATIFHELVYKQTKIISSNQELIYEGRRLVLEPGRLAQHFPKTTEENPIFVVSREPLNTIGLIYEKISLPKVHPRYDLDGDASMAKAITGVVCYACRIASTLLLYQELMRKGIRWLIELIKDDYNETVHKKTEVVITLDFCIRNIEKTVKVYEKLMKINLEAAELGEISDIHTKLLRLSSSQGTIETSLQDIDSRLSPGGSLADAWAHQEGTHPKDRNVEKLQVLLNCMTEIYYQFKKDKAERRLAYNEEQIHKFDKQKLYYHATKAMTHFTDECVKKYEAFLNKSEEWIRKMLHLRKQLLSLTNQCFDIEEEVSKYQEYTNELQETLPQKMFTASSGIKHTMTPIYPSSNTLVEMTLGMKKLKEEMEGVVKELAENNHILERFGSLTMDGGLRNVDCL

[20] = target: Serine/threonine-protein kinase VRK2 (Homo sapiens) (UniProt Q86Y07); test: Inhibition of recombinant human VRK2 (1 to 336 residues) assessed as residual activity at 10 uM using casein as substrate incubated for 40 mins in presence of [gamma33P]ATP by scintillation counting based radiometry assay relative to control
Sequence of Serine/threonine-protein kinase VRK2 (Homo sapiens) (Q86Y07 whole entry, the tested form may be a part): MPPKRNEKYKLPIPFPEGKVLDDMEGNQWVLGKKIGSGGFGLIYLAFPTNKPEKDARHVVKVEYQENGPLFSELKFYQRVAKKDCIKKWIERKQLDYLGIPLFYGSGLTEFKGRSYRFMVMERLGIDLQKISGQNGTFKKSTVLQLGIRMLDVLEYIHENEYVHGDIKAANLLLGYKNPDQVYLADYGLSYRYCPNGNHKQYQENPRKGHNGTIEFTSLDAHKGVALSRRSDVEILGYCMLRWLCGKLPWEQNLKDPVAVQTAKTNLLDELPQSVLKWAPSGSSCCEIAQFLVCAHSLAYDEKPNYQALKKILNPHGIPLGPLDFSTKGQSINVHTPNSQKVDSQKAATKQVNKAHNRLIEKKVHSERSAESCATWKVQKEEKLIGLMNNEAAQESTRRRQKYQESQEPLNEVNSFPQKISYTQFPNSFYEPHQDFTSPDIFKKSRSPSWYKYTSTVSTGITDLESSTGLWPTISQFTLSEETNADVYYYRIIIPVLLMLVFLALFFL

[21] = target: Phosphatidylinositol 4-phosphate 5-kinase type-1 alpha (Homo sapiens) (UniProt Q99755); test: Inhibition of recombinant full-length human PIP5K1alpha assessed as residual activity at 10 uM using phosphatidylinositol 5-phosphate as substrate by HTRF assay relative to control

Sequence of Cyclin-dependent kinase 5/CDK5 activator 1 (Homo sapiens) (Q00535 whole entry): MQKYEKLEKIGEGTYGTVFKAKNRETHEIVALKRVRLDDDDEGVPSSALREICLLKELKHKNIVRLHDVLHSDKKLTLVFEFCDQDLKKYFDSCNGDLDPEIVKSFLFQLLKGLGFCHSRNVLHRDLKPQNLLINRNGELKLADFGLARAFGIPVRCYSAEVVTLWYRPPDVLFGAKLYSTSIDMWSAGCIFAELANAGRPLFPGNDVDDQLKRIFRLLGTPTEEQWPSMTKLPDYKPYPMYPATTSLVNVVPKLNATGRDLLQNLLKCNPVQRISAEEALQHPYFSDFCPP
Sequence of Cyclin-dependent kinase 5/CDK5 activator 1 (Homo sapiens) (Q15078 99-307 partner limits assumed): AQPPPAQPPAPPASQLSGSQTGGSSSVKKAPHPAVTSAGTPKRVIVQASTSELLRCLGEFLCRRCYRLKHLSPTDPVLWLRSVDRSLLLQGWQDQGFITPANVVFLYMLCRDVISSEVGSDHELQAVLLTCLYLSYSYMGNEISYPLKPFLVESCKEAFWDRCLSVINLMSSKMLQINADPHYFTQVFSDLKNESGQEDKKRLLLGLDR

**Q.** With `C[C@@H](c1ccccc1)n1nnc2cnc3ccc(-c4cnc5[nH]ccc5c4)cc3c21` as the molecule, how does the Activity [1] read?
**A.** Its Activity is 84%.

**Q.** What about the Activity [2] of the same molecule?
**A.** Its Activity is 80%.

**Q.** And the Activity [3]?
**A.** Its Activity is 45%.

**Q.** What about the Activity [4] of the same molecule?
**A.** The Activity was 30%.

**Q.** What about the Activity [5] of the same molecule?
**A.** Its Activity is 109%.

**Q.** And the Activity [6]?
**A.** The Activity was 3%.

**Q.** And the Activity [7]?
**A.** Its Activity is 102%.

**Q.** What about the Activity [8] of the same molecule?
**A.** Its Activity is 73%.

**Q.** And the Activity [9]?
**A.** The Activity was 87%.

**Q.** What about the Activity [10] of the same molecule?
**A.** Its Activity is 47%.

**Q.** And the Activity [11]?
**A.** Its Activity is 107%.

**Q.** What about the Activity [12] of the same molecule?
**A.** Its Activity is 58%.

**Q.** And the Activity [13]?
**A.** Its Activity is 105%.

**Q.** And the Activity [14]?
**A.** Its Activity is 4%.

**Q.** What about the Activity [15] of the same molecule?
**A.** Its Activity is 80%.

**Q.** What about the Activity [16] of the same molecule?
**A.** The Activity was 23%.

**Q.** What about the Activity [17] of the same molecule?
**A.** The Activity was 79%.

**Q.** And the Activity [18]?
**A.** The Activity was 76%.

**Q.** What about the Activity [19] of the same molecule?
**A.** The Activity was 85%.

**Q.** What about the Activity [20] of the same molecule?
**A.** The Activity was 80%.

**Q.** And the Activity [21]?
**A.** The Activity was 73 to 83%.
